Where “and” joins values, the source holds several entries; their conditions need not be identical. Identical values can stand only once.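 Following 48 hours of exposure in 96-well plates, responses at five concentrations were used to interpolate endpoints linearly. At the GI50, growth is halved. TGI: total growth inhibition.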

Test systems include DU-145 prostate; EKVX NSCLC; HOP-92 NSCLC; MCF7 breast; OVCAR-5 ovarian; TK-10 renal; U251 CNS.
What all share (assay): inhibition of tumour cell growth, NCI panel, 48 h

As to `CC(=O)c1ccc2c3c1O[C@H]1c4[nH]c5ccccc5c4C[C@@]4(O)[C@@H](C2)N(CC2CC2)CC[C@]314`, the TGI in the assay with DU-145 prostate worked out at 39.5 µM; with EKVX NSCLC, 45.3 µM; with HOP-92 NSCLC, 28.2 µM; with MCF7 breast, 30.4 µM; in the assay on OVCAR-5 ovarian, 28.1 µM; in the assay with TK-10 renal, 32.4 µM. The same compound yielded a TGI with U251 CNS of 26.1 µM.

In the case of `COc1ccc(C2=NNC(c3cc4cc(Br)ccc4nc3Cl)C2)cc1` (stereo unspecified), the TGI in the assay on DU-145 prostate, with EKVX NSCLC, with HOP-92 NSCLC, in the assay on MCF7 breast and with OVCAR-5 ovarian was greater than 25 µM in each case.

Regarding `CC1=NN(C(=O)Cc2ccccc2)C(=O)/C1=C\c1ccccc1O`, the TGI with EKVX NSCLC, in the assay with HOP-92 NSCLC, in the assay with OVCAR-5 ovarian, in the assay on TK-10 renal and in the assay with U251 CNS was greater than 100 µM in each case.

Take `C[C@]12CC[C@H](O)CC1=CC[C@@H]1[C@@H]2CC[C@]2(C)C(=O)/C(=C/c3ccc([N+](=O)[O-])cc3)C[C@@H]12`: the TGI in the assay with DU-145 prostate was 44.9 µM; in the assay with EKVX NSCLC it was 24.9 µM; in the assay with HOP-92 NSCLC it was 22.6 µM; with MCF7 breast, greater than 100 µM; in the assay with OVCAR-5 ovarian, 50.9 µM.

In the case of `C=CCOCn1ccc(N)nc1=O`, the TGI in the assay on DU-145 prostate, with EKVX NSCLC, with MCF7 breast and in the assay with TK-10 renal was greater than 100 µM throughout.

Consider `CCC(=O)N1C(=O)C(CC)(CC)C(=O)N1C(=O)CC`, for which the TGI with DU-145 prostate, in the assay with EKVX NSCLC, with MCF7 breast, in the assay with OVCAR-5 ovarian, with TK-10 renal and in the assay on U251 CNS was greater than 100 µM in each case.

In the case of `CCN(CC)C1Oc2cc3c(cc2C(c2cccc(OC)c2O)C1C)OCO3` (stereo unspecified), the TGI is greater than 66.7 µM in the assay on DU-145 prostate; 62.3 µM in the assay on EKVX NSCLC; greater than 46 µM in the assay with MCF7 breast; 48.5 µM with OVCAR-5 ovarian; greater than 100 µM with TK-10 renal; 17.9 µM with U251 CNS.

With `NC1=Nc2ccccc2Sc2nc3ccccc3n21`, the TGI in the assay with DU-145 prostate, in the assay on HOP-92 NSCLC, in the assay on MCF7 breast, in the assay with OVCAR-5 ovarian, in the assay with TK-10 renal and in the assay with U251 CNS was greater than 100 µM each time.

`Cc1c2oc3c(C)cc(F)c(C(=O)NC4C(=O)NC(C(C)C)C(=O)N5CCCC5C(=O)N(C)CC(=O)N(C)C(C(C)C)C(=O)OC4C)c3nc-2c(C(=O)NC2C(=O)NC(C(C)C)C(=O)N3CCCC3C(=O)N(C)CC(=O)N(C)C(C(C)C)C(=O)OC2C)c(N)c1=O` (stereo unspecified): the GI50 was 0.767 µM in the assay with EKVX NSCLC, 0.0688 µM with OVCAR-5 ovarian and 1.07 µM in the assay with TK-10 renal. For the same compound, the TGI came out at 46.8 µM with EKVX NSCLC; 0.887 µM in the assay on HOP-92 NSCLC; 60.6 µM in the assay with MCF7 breast; 10.2 µM in the assay with OVCAR-5 ovarian; 25.9 µM in the assay with U251 CNS.

On to `Cc1c2cccc-2c(OCCOC(=O)n2ccnc2)cc2c1[nH]c1ccccc12`, for which the TGI in the assay with DU-145 prostate came to 22 µM; with EKVX NSCLC it was 4.18 µM; in the assay with HOP-92 NSCLC it was 4.28 µM; in the assay with MCF7 breast it was 19.5 µM; in the assay on OVCAR-5 ovarian, 7.51 µM; in the assay with TK-10 renal, 14.4 µM.

For the compound `O=Cc1c(Br)[nH]c2ccccc12`, the TGI with EKVX NSCLC, in the assay on HOP-92 NSCLC, in the assay with MCF7 breast, in the assay on OVCAR-5 ovarian and in the assay with U251 CNS was greater than 100 µM throughout.

For `CN(C)C=NCC(O)c1ccccc1` (stereo unspecified), the TGI in the assay with DU-145 prostate, in the assay on EKVX NSCLC, in the assay with HOP-92 NSCLC, in the assay with MCF7 breast, with OVCAR-5 ovarian and with TK-10 renal was greater than 100 µM throughout.

For the compound `COc1cc(S(=O)(=O)Nc2ccc(-c3csc(N4C(=O)C(C)SC4c4ccccc4)n3)cc2)ccc1Cl` (stereo unspecified), the TGI was greater than 100 µM in the assay on DU-145 prostate; greater than 100 µM in the assay on EKVX NSCLC; greater than 100 µM in the assay on HOP-92 NSCLC; 43.2 µM in the assay with MCF7 breast; greater than 100 µM in the assay on OVCAR-5 ovarian.

Consider `Cc1ccc2c(=O)cc(Cc3csc4ccccc34)[nH]c2n1`, for which the TGI in the assay on DU-145 prostate, in the assay with EKVX NSCLC, in the assay on MCF7 breast, with OVCAR-5 ovarian, in the assay with TK-10 renal and in the assay with U251 CNS was greater than 100 µM in each case.

Consider `COc1cc2c(c(OC)c1OC)-c1ccc(SC)c(=O)cc1[C@@H](NC(=O)c1ccc([N+](=O)[O-])cc1)CC2`, for which the TGI in the assay with EKVX NSCLC is 25 µM; in the assay with HOP-92 NSCLC it was 23.2 µM; in the assay on OVCAR-5 ovarian it was 0.171 µM; in the assay with TK-10 renal, 25 µM and > 100 µM. Besides, in the assay on TK-10 renal, the GI50 was 0.0344 µM.

In the case of `O=C(CSCC(=O)N/N=C\c1ccccc1F)N/N=C\c1ccccc1F`, the TGI with DU-145 prostate, in the assay on EKVX NSCLC, with HOP-92 NSCLC, with MCF7 breast, with TK-10 renal and in the assay with U251 CNS was greater than 100 µM in each case.

As for `Cc1ccc(N=C2SC(=NN(C)C)SC2=Nc2ccc(C)cc2)cc1`, the TGI in the assay on DU-145 prostate, in the assay with EKVX NSCLC, with HOP-92 NSCLC, in the assay with OVCAR-5 ovarian, in the assay with TK-10 renal and in the assay on U251 CNS was greater than 100 µM each time.

As for `COc1ccc(-c2nc(-c3cnccn3)n(Cc3ccccc3)n2)cc1`, the TGI with DU-145 prostate, in the assay with HOP-92 NSCLC, in the assay with MCF7 breast, in the assay with OVCAR-5 ovarian and in the assay on U251 CNS was greater than 100 µM throughout.

As to `C[N+](C)(C)CC(=O)N/N=C(/Cc1nc2ccc([N+](=O)[O-])cc2[nH]c1=O)C(=O)Nc1cc(C(F)(F)F)ccc1Cl`, the TGI with EKVX NSCLC, in the assay on HOP-92 NSCLC, with OVCAR-5 ovarian and in the assay on TK-10 renal was greater than 100 µM each time.

Regarding `O=NN1C(c2ccccc2)CCCC1c1ccccc1` (stereo unspecified), the TGI was 99.1 µM with EKVX NSCLC; greater than 96.1 µM in the assay with HOP-92 NSCLC; greater than 100 µM with MCF7 breast; greater than 100 µM in the assay on OVCAR-5 ovarian; greater than 100 µM with U251 CNS.

(Values after PubChem BioAssay (NCI).)
